These are literature values, as cited in publication PMC2831206 (Journal of medicinal chemistry, 2010).

The test system of one data set is PDE9A. The following applies: read-out: IC50 with PDE9A.
For a further data set, the system named is learning and memory. The following applies: rodents.

For the molecule `CC(C)Cn1c(=O)n(C)c(=O)c2nc[nH]c21` [IBMX, 3-isobutyl-1-methylxanthine], the IC50 with PDE9A is greater than 200 µM.
`C[C@H](Cc1nc2c(cnn2-c2ccccc2Cl)c(=O)[nH]1)C(F)(F)F` [compound 1, 1-(2-chlorophenyl)-6-(3,3,3-trifluoro-2-methylpropyl)-1H-pyrazolo[3,4-d]pyrimidine-4(5H)-one]: in the data set on learning and memory, the “effect on learning and memory” value was “ability to improve learning and memory in rodents”.
